Source: PubChem BioAssay AID1259407 (Chemical Carcinogenesis Research Information System (CCRIS), 2018)
The source made the active and inactive calls. No rule for the calls is given here.

Test system: CCRIS mutagenicity, Ames/micronucleus/aberration tests
Assay: CCRIS mutagenicity studies

Measured: mutagenic call

Cc1cccn2c1nc1ccc(N)nc12
active: Test System: AMES SALMONELLA TYPHIMURIUM, Strain/Indicator: TA98, Metabolic Activation: MOUSE, LIVER, MICROSOMES, TCDD, Method: STANDARD PLATE active; positive | Test System: AMES SALMONELLA TYPHIMURIUM, Strain/Indicator: TA98, Metabolic Activation: MOUSE, LIVER, MICROSOMES, Method: STANDARD PLATE active; positive | Test System: AMES SALMONELLA TYPHIMURIUM, Strain/Indicator: TA98, Metabolic Activation: RAT LIVER, MICROSOMES, AROCLOR 1254, Method: STANDARD PLATE active; positive | Test System: AMES SALMONELLA TYPHIMURIUM, Strain/Indicator: TA98, Metabolic Activation: RAT, LIVER, MICROSOMES, 1-METHYLCHRYSENE, Method: PREINCUBATION active; positive | Test System: AMES SALMONELLA TYPHIMURIUM, Strain/Indicator: TA98, Metabolic Activation: RAT, LIVER, MICROSOMES, 2-METHYLCHRYSENE, Method: PREINCUBATION active; positive | Test System: AMES SALMONELLA TYPHIMURIUM, Strain/Indicator: TA98, Metabolic Activation: RAT, LIVER, MICROSOMES, 3-METHYLCHRYSENE, Method: PREINCUBATION active; positive | Test System: AMES SALMONELLA TYPHIMURIUM, Strain/Indicator: TA98, Metabolic Activation: RAT, LIVER, MICROSOMES, 4-METHYLCHRYSENE, Method: PREINCUBATION active; positive | Test System: AMES SALMONELLA TYPHIMURIUM, Strain/Indicator: TA98, Metabolic Activation: RAT, LIVER, MICROSOMES, 5-METHYLCHRYSENE, Method: PREINCUBATION active; positive | Test System: AMES SALMONELLA TYPHIMURIUM, Strain/Indicator: TA98, Metabolic Activation: RAT, LIVER, MICROSOMES, 6-AMINOCHRYSENE, Method: PREINCUBATION active; positive | Test System: AMES SALMONELLA TYPHIMURIUM, Strain/Indicator: TA98, Metabolic Activation: RAT, LIVER, MICROSOMES, 6-METHYLCHRYSENE, Method: PREINCUBATION active; positive | Test System: AMES SALMONELLA TYPHIMURIUM, Strain/Indicator: TA98, Metabolic Activation: RAT, LIVER, MICROSOMES, BENZO[B]CHRYSENE, Method: PREINCUBATION active; positive | Test System: AMES SALMONELLA TYPHIMURIUM, Strain/Indicator: TA98, Metabolic Activation: RAT, LIVER, MICROSOMES, BENZO[C]CHRYSENE, Method: PREINCUBATION active; positive | Test System: AMES SALMONELLA TYPHIMURIUM, Strain/Indicator: TA98, Metabolic Activation: RAT, LIVER, S-9, AROCLOR 1254, Method: PREINCUBATION active; positive | Test System: AMES SALMONELLA TYPHIMURIUM, Strain/Indicator: TA100, Metabolic Activation: RAT, LIVER, S-9, AROCLOR 1254, Method: PREINCUBATION active; positive | Test System: AMES SALMONELLA TYPHIMURIUM, Strain/Indicator: TA1538, Metabolic Activation: RAT, LIVER, MICROSOMES, 2-ACETYLAMINOFLUORENE, Method: STANDARD PLATE active; positive | Test System: AMES SALMONELLA TYPHIMURIUM, Strain/Indicator: TA1538, Metabolic Activation: RAT, LIVER, MICROSOMES, 4-ACETYLAMINOFLUORENE, Method: STANDARD PLATE active; positive | Test System: AMES SALMONELLA TYPHIMURIUM, Strain/Indicator: TA1538, Metabolic Activation: RAT, LIVER, MICROSOMES, Method: STANDARD PLATE active; positive | Test System: AMES SALMONELLA TYPHIMURIUM, Strain/Indicator: YG1012, Metabolic Activation: RAT, LIVER, S-9, PHENOBARBITAL AND 5,6-BENZOFLAVONE, Method: PREINCUBATION active; positive | Test System: AMES SALMONELLA TYPHIMURIUM, Strain/Indicator: YG1019, Metabolic Activation: RAT LIVER S-9, AROCLOR, Method: PREINCUBATION active; positive | Test System: AMES SALMONELLA TYPHIMURIUM, Strain/Indicator: YG1019, Metabolic Activation: RAT, LIVER, S-9, PHENOBARBITAL AND 5,6-BENZOFLAVONE, Method: PREINCUBATION active; positive | Test System: AMES SALMONELLA TYPHIMURIUM, Strain/Indicator: YG1020, Metabolic Activation: RAT, LIVER, S-9, PHENOBARBITAL AND 5,6-BENZOFLAVONE, Method: PREINCUBATION active; positive | Test System: AMES SALMONELLA TYPHIMURIUM, Strain/Indicator: YG1024, Metabolic Activation: RAT, LIVER, S-9, PHENOBARBITAL AND 5,6-BENZOFLAVONE, Method: PREINCUBATION active; positive | Test System: AMES SALMONELLA TYPHIMURIUM, Strain/Indicator: YG1025, Metabolic Activation: RAT, LIVER, S-9, PHENOBARBITAL AND 5,6-BENZOFLAVONE, Method: PREINCUBATION active; positive | Test System: AMES SALMONELLA TYPHIMURIUM, Strain/Indicator: YG1029, Metabolic Activation: RAT, LIVER, S-9, PHENOBARBITAL AND 5,6-BENZOFLAVONE, Method: PREINCUBATION active; positive | Test System: UDS HUMAN HEPATOCYTES, Strain/Indicator: THY INCORP, Metabolic Activation: NONE, Method: AUTORADIOGRAPHY active; positive | Test System: UDS MOUSE HEPATOCYTES, Strain/Indicator: THY INCORP, Metabolic Activation: NONE, Method: AUTORADIOGRAPHY active; positive
inactive: Test System: AMES SALMONELLA TYPHIMURIUM, Strain/Indicator: TA98, Metabolic Activation: RAT LIVER, CYTOSOL, AROCLOR 1254, Method: STANDARD PLATE inactive; negative | Test System: UDS RAT HEPATOCYTES, Strain/Indicator: THY INCORP, Metabolic Activation: NONE, Method: AUTORADIOGRAPHY inactive; negative
